Results as given in PubChem BioAssay (NCI).
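These data come from cells grown in 96-well plates and exposed to compound for 48 hours at five concentrations. Definition used: TGI = concentration required for complete inhibition of growth.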

Legend:
Test in all cases: NCI anticancer screen, dose series, 48 h
786-0 renal = test system: 786-0 renal
A549 NSCLC = test system: A549 NSCLC
ACHN renal = test system: ACHN renal
BT-549 breast = test system: BT-549 breast
CAKI-1 renal = test system: CAKI-1 renal
CCRF-CEM leukemia = test system: CCRF-CEM leukemia
COLO 205 colon = test system: COLO 205 colon
DU-145 prostate = test system: DU-145 prostate
EKVX NSCLC = test system: EKVX NSCLC
HCC-2998 colon = test system: HCC-2998 colon
HCT-116 colon = test system: HCT-116 colon
HCT-15 colon = test system: HCT-15 colon
HL-60(TB) leukemia = test system: HL-60(TB) leukemia
HOP-62 NSCLC = test system: HOP-62 NSCLC
HOP-92 NSCLC = test system: HOP-92 NSCLC
HT29 colon = test system: HT29 colon
IGROV1 ovarian = test system: IGROV1 ovarian
K-562 leukemia = test system: K-562 leukemia
KM12 colon = test system: KM12 colon
LOX IMVI melanoma = test system: LOX IMVI melanoma
M14 melanoma = test system: M14 melanoma
MALME-3M melanoma = test system: MALME-3M melanoma
MCF7 breast = test system: MCF7 breast
MDA-MB-435 = test system: MDA-MB-435
MDA-N = test system: MDA-N
MOLT-4 leukemia = test system: MOLT-4 leukemia
NCI-H226 lung = test system: NCI-H226 lung
NCI-H23 lung = test system: NCI-H23 lung
NCI-H460 lung = test system: NCI-H460 lung
NCI-H522 lung = test system: NCI-H522 lung
NCI/ADR-RES ovarian = test system: NCI/ADR-RES ovarian
OVCAR-3 ovarian = test system: OVCAR-3 ovarian
OVCAR-4 ovarian = test system: OVCAR-4 ovarian
OVCAR-5 ovarian = test system: OVCAR-5 ovarian
OVCAR-8 ovarian = test system: OVCAR-8 ovarian
PC-3 prostate = test system: PC-3 prostate
RPMI-8226 leukemia = test system: RPMI-8226 leukemia
RXF 393 renal = test system: RXF 393 renal
SF-268 CNS = test system: SF-268 CNS
SF-295 CNS = test system: SF-295 CNS
SF-539 CNS = test system: SF-539 CNS
SK-MEL-2 melanoma = test system: SK-MEL-2 melanoma
SK-MEL-28 melanoma = test system: SK-MEL-28 melanoma
SK-MEL-5 melanoma = test system: SK-MEL-5 melanoma
SK-OV-3 ovarian = test system: SK-OV-3 ovarian
SN12C renal = test system: SN12C renal
SNB-19 CNS = test system: SNB-19 CNS
SR leukemia = test system: SR leukemia
SW-620 colon = test system: SW-620 colon
T-47D breast = test system: T-47D breast
TK-10 renal = test system: TK-10 renal
U251 CNS = test system: U251 CNS
UACC-257 melanoma = test system: UACC-257 melanoma
UACC-62 melanoma = test system: UACC-62 melanoma
UO-31 renal = test system: UO-31 renal

SMILES: C#Cc1cc(-c2nc3ccccc3s2)ccc1N
- TGI (786-0 renal): > 100 µM
- TGI (A549 NSCLC): 42.8 µM
- TGI (ACHN renal): 70.3 µM
- TGI (BT-549 breast): 94.9 µM
- TGI (CAKI-1 renal): 50.4 µM
- TGI (CCRF-CEM leukemia): 56 µM
- TGI (COLO 205 colon): 32.9 µM
- TGI (DU-145 prostate): 39.5 µM
- TGI (EKVX NSCLC): 65 µM
- TGI (HCC-2998 colon): 32.6 µM
- TGI (HCT-116 colon): 32.9 µM
- TGI (HCT-15 colon): 42.8 µM
- TGI (HL-60(TB) leukemia): > 100 µM
- TGI (HOP-62 NSCLC): > 100 µM
- TGI (HOP-92 NSCLC): 44.7 µM
- TGI (HT29 colon): 33 µM
- TGI (IGROV1 ovarian): 53.8 µM
- TGI (K-562 leukemia): 89 µM
- TGI (KM12 colon): 46.9 µM
- TGI (LOX IMVI melanoma): 27.8 µM
- TGI (M14 melanoma): 34.5 µM
- TGI (MALME-3M melanoma): 63.4 µM
- TGI (MCF7 breast): 31.4 µM
- TGI (MDA-MB-435): 40.4 µM
- TGI (MDA-N): 97.6 µM
- TGI (MOLT-4 leukemia): 91.1 µM
- TGI (NCI-H226 lung): 47.8 µM
- TGI (NCI-H23 lung): 55.9 µM
- TGI (NCI-H460 lung): 74.5 µM
- TGI (NCI-H522 lung): 32.3 µM
- TGI (NCI/ADR-RES ovarian): 86.5 µM
- TGI (OVCAR-3 ovarian): 42.4 µM
- TGI (OVCAR-4 ovarian): 47.1 µM
- TGI (OVCAR-5 ovarian): > 100 µM
- TGI (OVCAR-8 ovarian): > 100 µM
- TGI (PC-3 prostate): 94.1 µM
- TGI (RPMI-8226 leukemia): 76.8 µM
- TGI (RXF 393 renal): 93.9 µM
- TGI (SF-268 CNS): > 100 µM
- TGI (SF-295 CNS): 54.8 µM
- TGI (SF-539 CNS): 81.3 µM
- TGI (SK-MEL-2 melanoma): 35.9 µM
- TGI (SK-MEL-28 melanoma): 35.6 µM
- TGI (SK-MEL-5 melanoma): 68.6 µM
- TGI (SK-OV-3 ovarian): 69.7 µM
- TGI (SN12C renal): 79 µM
- TGI (SNB-19 CNS): 66.9 µM
- TGI (SR leukemia): 92.4 µM
- TGI (SW-620 colon): 81.8 µM
- TGI (T-47D breast): 45.6 µM
- TGI (TK-10 renal): 36.8 µM
- TGI (U251 CNS): 63.6 µM
- TGI (UACC-257 melanoma): 27.9 µM
- TGI (UACC-62 melanoma): 36.6 µM
- TGI (UO-31 renal): 56.3 µM
